The experiment concerns the target T1, BCL-XL (Homo sapiens, UniProt Q07817).
T1 construct: endogenous in cells; host or cells: MOLT-4
As to the kind of experiment: Bcl-xL ELISA degradation in MOLT-4 cells, 6 h. In kind it is cell-based. To be noted: for DC50: read-out: Bcl-xL ELISA in MOLT-4 degradation 6 h: Mean external-Abs DC50. On the procedure:
The letter codes for BCL-XL DC50 include: A (<0.01 μM); B (0.01-0.1 μM); C (>[…]); D (>0.5-1.0 μM); and E (>1.0 μM). The letter codes for Dmax % include A (>75%); B (50 to 75%); C (<50%).
On the technique in general: In an ELISA, binding on a coated surface is turned into a signal by an enzyme label.

T1 sequence (Q07817 whole entry): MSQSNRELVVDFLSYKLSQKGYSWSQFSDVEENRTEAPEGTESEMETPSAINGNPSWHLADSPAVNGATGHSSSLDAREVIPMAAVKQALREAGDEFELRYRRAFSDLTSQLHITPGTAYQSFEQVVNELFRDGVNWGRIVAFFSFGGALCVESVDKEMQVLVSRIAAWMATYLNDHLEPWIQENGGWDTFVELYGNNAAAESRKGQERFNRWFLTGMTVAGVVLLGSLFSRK

One may read the Dmax as the largest share of the target that was removed. High values mean a fuller loss of target, low ones a partial loss of target. The DC50 is the concentration giving 50% degradation. With `Cc1ncsc1-c1ccc([C@H](C)NC(=O)[C@@H]2C[C@@H](O)CN2C(=O)[C@@H](NC(=O)C2CCN(c3ccc(S(=O)(=O)NC(=O)c4nc(N5CCc6cccc(C(=O)Nc7nc8ccccc8s7)c6C5)ccc4-c4cnn(CC5CCCCC5)c4C)cc3Cl)CC2)C(C)(C)C)cc1` [I-274], the Dmax lay within 50 to 75% and the DC50 is 10 to 100 nM.

On to `Cc1ncsc1-c1ccc([C@H](C)NC(=O)[C@@H]2C[C@@H](O)CN2C(=O)[C@@H](NC(=O)N2CCN(c3ccc(S(=O)(=O)NC(=O)c4nc(N5CCc6cccc(C(=O)Nc7nc8ccccc8s7)c6C5)ccc4-c4cnn(CC5CCCCC5)c4C)cc3)CC2)C(C)(C)C)cc1` [I-261], for which the greatest degradation seen (Dmax) was greater than 75% and the DC50 was 10 to 100 nM.

`C#Cc1ccc(CNC(=O)[C@@H]2C[C@@H](O)CN2C(=O)[C@@H](c2cc(N3CCN(c4ccc(S(=O)(=O)NC(=O)c5nc(N6CCc7cccc(C(=O)Nc8nc9ccccc9s8)c7C6)ccc5-c5cnn(CC6CCCCC6)c5C)cc4)CC3)no2)C(C)C)cc1` [I-262]: the Dmax was greater than 75% and the DC50 was less than 10 nM.

Consider `Cc1ncsc1-c1ccc([C@H](C)NC(=O)[C@@H]2C[C@@H](O)CN2C(=O)[C@@H](NC(=O)N2CCC3(CCN(CC#Cc4ccc(OCCCc5sc(N6CCc7cccc(C(=O)Nc8nc9ccccc9s8)c7C6)nc5C(=O)O)c(F)c4)CC3)CC2)C(C)(C)C)cc1` [I-71], for which the Dmax is less than 50%.

For `Cc1ncsc1-c1ccc([C@H](C)NC(=O)[C@@H]2C[C@@H](O)CN2C(=O)[C@@H](c2cc(OC3CN(CCCS(=O)(=O)NC(=O)c4nc(N5CCc6cccc(C(=O)Nc7nc8ccccc8s7)c6C5)ccc4-c4cnn(CC5CCCCC5)c4C)C3)no2)C(C)C)cc1` [I-271], the Dmax was greater than 75% and the DC50 lay within 10 to 100 nM.

With `Cc1ncsc1-c1ccc(CNC(=O)[C@@H]2C[C@@H](O)CN2C(=O)[C@@H](NC(=O)C2(F)CC2)C(C)(C)C)c(N2CCC(N3CCC(NC(=O)c4nc(N5CCc6cccc(C(=O)Nc7nc8ccccc8s7)c6C5)ccc4-c4cnn(CC5CCCCC5)c4C)CC3)CC2)c1` [I-270], the greatest degradation seen (Dmax) was less than 50% and the DC50 was greater than 1000 nM.

For the molecule `Cc1ncsc1-c1ccc([C@H](C)NC(=O)[C@@H]2C[C@@H](O)CN2C(=O)[C@@H](NC(=O)C2CC3CCC(C2)N3c2ccc(S(=O)(=O)NC(=O)c3nc(N4CCc5cccc(C(=O)Nc6nc7ccccc7s6)c5C4)ccc3-c3cnn(CC4CCCCC4)c3C)cc2)C(C)(C)C)cc1` (some centres unmarked) [I-278], the Dmax was greater than 75% and the DC50 lay in the range of 10 to 100 nM.

Turning to `Cc1ncsc1-c1ccc([C@H](C)NC(=O)[C@@H]2C[C@@H](O)CN2C(=O)C(c2cc(N3CCC(CN4CCC(NC(=O)c5nc(N6CCc7cccc(C(=O)Nc8nc9ccccc9s8)c7C6)ccc5-c5cnn(CC6CCCCC6)c5C)CC4)CC3)no2)C(C)C)cc1` (some centres unmarked) [I-238], the maximal degradation (Dmax) is less than 50%.

`Cc1ncsc1-c1ccc([C@H](C)NC(=O)[C@@H]2C[C@@H](O)CN2C(=O)[C@@H](NC(=O)C2CCN(c3ccc(S(=O)(=O)NC(=O)c4nc(N5CCc6cccc(C(=O)Nc7nc8ccccc8s7)c6C5)ccc4-c4cnn(CC5(CCCN6CCN(C)CC6)CCCCC5)c4C)cc3)CC2)C(C)(C)C)cc1` [I-256]: the Dmax lay in the range of 50 to 75% and the DC50 lay within 100 to 500 nM.

With `Cc1cc([C@@H](C(=O)N2C[C@H](O)C[C@H]2C(=O)NCc2ccc(-c3scnc3C)cc2OCCCN2CCN(C(=O)c3nc(N4CCc5cccc(C(=O)Nc6nc7ccccc7s6)c5C4)ccc3-c3cnn(CC4CCCCC4)c3C)CC2)C(C)C)on1` [I-268], the maximal degradation (Dmax) is greater than 75% and the DC50 was less than 10 nM.

For the molecule `C#Cc1ccc(CNC(=O)[C@@H]2C[C@@H](O)CN2C(=O)[C@@H](c2cc(N3CCN(c4ccc(S(=O)(=O)NC(=O)c5nc(N6CCc7cccc(C(=O)Nc8nc9ccccc9s8)c7C6)ccc5-c5cnn(CC6CCCCC6)c5C)cc4)CC3)no2)C(C)C)c(OC)c1` [I-263], the Dmax is 50 to 75% and the 50% degradation concentration (DC50) lay within 10 to 100 nM.

With `Cc1cc([C@@H](C(=O)N2C[C@H](O)C[C@H]2C(=O)NCc2ccc(-c3scnc3C)cc2OCCCCCCN(C)C(=O)c2nc(N3CCc4cccc(C(=O)Nc5nc6ccccc6s5)c4C3)ccc2-c2cnn(CC3CCCCC3)c2C)C(C)C)on1` [I-264], the Dmax is 50 to 75% and the half-maximal degradation concentration (DC50) was in the range of 10 to 100 nM.

`Cc1ncsc1-c1ccc([C@H](C)NC(=O)[C@@H]2C[C@@H](O)CN2C(=O)C(c2cc(OC3CCN(CCCCNC(=O)c4nc(N5CCc6cccc(C(=O)Nc7nc8ccccc8s7)c6C5)ccc4-c4cnn(CC5CCCCC5)c4C)CC3)no2)C(C)C)cc1` (some centres unmarked) [I-233]: the Dmax is less than 50% and the DC50 is greater than 1000 nM.

With `Cc1ncsc1-c1ccc([C@H](C)NC(=O)[C@@H]2C[C@@H](O)CN2C(=O)[C@@H](NC(=O)N2CCN(CC#Cc3ccc(OCCCc4sc(N5CCc6cccc(C(=O)Nc7nc8ccccc8s7)c6C5)nc4C(=O)O)c(F)c3)CC2)C(C)(C)C)cc1` [I-73], the Dmax is less than 50%.

As for `C#Cc1ccc([C@H](CO)NC(=O)[C@@H]2C[C@@H](O)CN2C(=O)[C@@H](NC(=O)C2CCN(c3ccc(S(=O)(=O)NC(=O)c4nc(N(C)c5cc(C)c(Nc6nc7ccccc7s6)nn5)ccc4-c4cnn(CC5(CC)CC6CC(C)CC(C6)C5)c4C)cc3)CC2)C(C)(C)C)cc1` (some centres unmarked) [I-245], the Dmax was greater than 75% and the DC50 is 10 to 100 nM.

For `Cc1ncsc1-c1ccc(CNC(=O)[C@@H]2C[C@@H](O)CN2C(=O)[C@@H](NC(=O)C2CCN(c3ccc(S(=O)(=O)NC(=O)c4nc(N5CCc6cccc(C(=O)Nc7nc8ccccc8s7)c6C5)ccc4-c4cnn(CC5CCCCC5)c4C)cc3)CC2)C(C)(C)C)cc1` [I-252], the Dmax was greater than 75% and the DC50 lay within 10 to 100 nM.

Turning to `Cc1ncsc1-c1ccc([C@H](C)NC(=O)[C@@H]2C[C@@H](O)CN2C(=O)[C@@H](NC(=O)N2CCC(N3CCN(C(=O)c4nc(N5CCc6cccc(C(=O)Nc7nc8ccccc8s7)c6C5)ccc4-c4cnn(CC5CCCCC5)c4C)CC3)CC2)C(C)(C)C)cc1` [I-247], the Dmax was less than 50% and the DC50 was greater than 1000 nM.

As to `Cc1ncsc1-c1ccc([C@H](C)NC(=O)[C@@H]2C[C@@H](O)CN2C(=O)[C@@H](NC(=O)C2CCN(c3ccc(S(=O)(=O)NC(=O)c4nc(N5CCc6cccc(C(=O)Nc7nc8ccccc8s7)c6C5)ccc4-c4cnn(CC(C)C)c4C)cc3)CC2)C(C)(C)C)cc1` [I-240], the Dmax is greater than 75% and the DC50 was in the range of 10 to 100 nM.

As to `Cc1cc([C@@H](C(=O)N2C[C@H](O)C[C@H]2C(=O)NCc2ccc(-c3scnc3C)cc2OCCN(C)C2CCN(C(=O)c3nc(N4CCc5cccc(C(=O)Nc6nc7ccccc7s6)c5C4)ccc3-c3cnn(CC4CCCCC4)c3C)CC2)C(C)C)on1` [I-266], the maximal degradation (Dmax) is 50 to 75% and the DC50 was in the range of 100 to 500 nM.

`Cc1cc(S(=O)(=O)NC(=O)c2nc(N3CCc4cccc(C(=O)Nc5nc6ccccc6s5)c4C3)ccc2-c2cnn(CC3CCCCC3)c2C)ccc1N1CCC(C(=O)N[C@H](C(=O)N2C[C@H](O)C[C@H]2C(=O)N[C@@H](C)c2ccc(-c3scnc3C)cc2)C(C)(C)C)CC1` [I-273]: the Dmax was greater than 75% and the DC50 is less than 10 nM.

On to `Cc1ncsc1-c1ccc(CNC(=O)[C@@H]2C[C@@H](O)CN2C(=O)[C@@H](NC(=O)C2(F)CC2)C(C)(C)C)c(OCCCC(=O)N2CCN(CC#Cc3ccc(OCCCc4sc(N5CCc6cccc(C(=O)Nc7nc8ccccc8s7)c6C5)nc4C(=O)O)c(F)c3)CC2)c1` [I-223], for which the Dmax was 50 to 75% and the DC50 fell in the range of 10 to 100 nM.

As for `Cc1cc([C@@H](C(=O)N2C[C@H](O)C[C@H]2C(=O)NCc2ccc(-c3scnc3C)cc2OCCN2CCN(C(=O)c3nc(N4CCc5cccc(C(=O)Nc6nc7ccccc7s6)c5C4)ccc3-c3cnn(CC4CCCCC4)c3C)CC2)C(C)C)on1` [I-267], the Dmax is less than 50% and the DC50 was greater than 1000 nM.

With `Cc1ncsc1-c1ccc([C@H](C)NC(=O)[C@@H]2C[C@@H](O)CN2C(=O)C(c2cc(N3CC(CN4CCC(NC(=O)c5nc(N6CCc7cccc(C(=O)Nc8nc9ccccc9s8)c7C6)ccc5-c5cnn(CC6CCCCC6)c5C)CC4)C3)no2)C(C)C)cc1` (some centres unmarked) [I-239], the Dmax is less than 50%.

Consider `C#Cc1ccc(CNC(=O)[C@@H]2C[C@@H](O)CN2C(=O)[C@@H](NC(=O)C2CCN(c3ccc(S(=O)(=O)NC(=O)c4nc(N5CCc6cccc(C(=O)Nc7nc8ccccc8s7)c6C5)ccc4-c4cnn(CC5CCCCC5)c4C)cc3)CC2)C(C)(C)C)c(OCCO)c1` [I-259], for which the Dmax is greater than 75% and the DC50 lay in the range of 10 to 100 nM.

`Cc1ncsc1-c1ccc(CNC(=O)[C@@H]2C[C@@H](O)CN2C(=O)[C@@H](NC(=O)C2(F)CC2)C(C)(C)C)c(OC2CCN(CC[C@H](CSc3ccccc3)Nc3ccc(S(=O)(=O)NC(=O)c4ccc(N5CCN(CC6=C(c7ccc(Cl)cc7)CCC(C)(C)C6)CC5)cc4)cc3S(=O)(=O)C(F)(F)F)CC2)c1` [I-281] showed a Dmax of less than 50%.

As for `Cc1ncsc1-c1ccc([C@H](C)NC(=O)[C@@H]2C[C@@H](O)CN2C(=O)[C@@H](NC(=O)C2CCN(c3ncc(S(=O)(=O)NC(=O)c4nc(N5CCc6cccc(C(=O)Nc7nc8ccccc8s7)c6C5)ccc4-c4cnn(CC5CCCCC5)c4C)cn3)CC2)C(C)(C)C)cc1` [I-250], the Dmax is greater than 75% and the half-maximal degradation concentration (DC50) was 10 to 100 nM.

As to `Cc1ncsc1-c1ccc(CNC(=O)N2C[C@@H](O)CC2C(=O)[C@@H](NC(=O)C2(F)CC2)C(C)(C)C)c(O[C@H]2C[C@H](N3CCC(NC(=O)c4nc(N5CCc6cccc(C(=O)Nc7nc8ccccc8s7)c6C5)ccc4-c4cnn(CC5CCCCC5)c4C)CC3)C2)c1` (some centres unmarked) [I-269], the Dmax is less than 50% and the half-maximal degradation concentration (DC50) was greater than 1000 nM.

Regarding `C#Cc1ccc(CNC(=O)[C@@H]2C[C@@H](O)CN2C(=O)[C@@H](NC(=O)C2CCN(c3ccc(S(=O)(=O)NC(=O)c4nc(N5CCc6cccc(C(=O)Nc7nc8ccccc8s7)c6C5)ccc4-c4cnn(CC5CCCCC5)c4C)cc3)CC2)C(C)(C)C)c(OC)c1` [I-254], the Dmax was greater than 75% and the half-maximal degradation concentration (DC50) is less than 10 nM.

For `Cc1ncsc1-c1ccc([C@H](C)NC(=O)[C@@H]2C[C@@H](O)CN2C(=O)[C@@H](NC(=O)N2CCC(N3CCC(S(=O)(=O)NC(=O)c4nc(N5CCc6cccc(C(=O)Nc7nc8ccccc8s7)c6C5)ccc4-c4cnn(CC5CCCCC5)c4C)CC3)CC2)C(C)(C)C)cc1` [I-258], the Dmax fell in the range of 50 to 75% and the half-maximal degradation concentration (DC50) was in the range of 100 to 500 nM.
